Source: PubChem BioAssay (NCI)
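The compound was tested at five concentrations on cells cultured in 96-well plates, with a 48-hour exposure period. GI50: concentration for 50% inhibition of growth. The concentration for full growth arrest is given as TGI.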

Key:
Assay in all cases: NCI anticancer screen, dose series, 48 h
BT-549 breast = tested on: BT-549 breast
HCC-2998 colon = tested on: HCC-2998 colon
HCT-116 colon = tested on: HCT-116 colon
HCT-15 colon = tested on: HCT-15 colon
HT29 colon = tested on: HT29 colon
KM12 colon = tested on: KM12 colon
OVCAR-3 ovarian = tested on: OVCAR-3 ovarian
SK-MEL-2 melanoma = tested on: SK-MEL-2 melanoma
SNB-19 CNS = tested on: SNB-19 CNS
T-47D breast = tested on: T-47D breast

Row | SMILES | TGI (BT-549 breast) [µM] | TGI (HCC-2998 colon) [µM] | TGI (HCT-116 colon) [µM] | TGI (HCT-15 colon) [µM] | TGI (HT29 colon) [µM] | TGI (KM12 colon) [µM] | TGI (OVCAR-3 ovarian) [µM] | TGI (SK-MEL-2 melanoma) [µM] | TGI (SNB-19 CNS) [µM] | TGI (T-47D breast) [µM] | GI50 (BT-549 breast) [µM] | GI50 (HCC-2998 colon) [µM] | GI50 (HCT-116 colon) [µM] | GI50 (HCT-15 colon) [µM] | GI50 (HT29 colon) [µM] | GI50 (KM12 colon) [µM] | GI50 (OVCAR-3 ovarian) [µM] | GI50 (SK-MEL-2 melanoma) [µM] | GI50 (SNB-19 CNS) [µM] | GI50 (T-47D breast) [µM]
1 | Cc1cc2nc(N3C(=O)/C(=C/Cc4ccco4)N=C3c3ccccc3)sc2cc1C | > 100 | 55.7 | 54 | > 100 | 76.5 | > 100 | > 100 | > 100 | > 100 | > 100 |  |  |  |  |  |  |  |  |  | 
2 | O=C(/C=C/c1ccccc1)c1cc(CN2CCOCC2)c(O)c(CN2CCOCC2)c1 | 85.3 | 33.7 | 31.3 | 29.7 | > 100 | 33.1 | 29.4 | 61.8 | > 100 | 48 |  |  |  |  |  |  |  |  |  | 
3 | O=C(Nc1cccc2ccccc12)c1cc2ccccc2oc1=O | > 100 | > 100 | > 100 | > 100 | > 100 | > 100 | > 100 | > 100 | 85.1 | > 100 |  |  |  |  |  |  |  |  |  | 
4 | Cc1nc(C(=Nc2ccc(Br)cc2)Nn2cnnc2)no1 | > 100 | > 100 | > 100 | > 100 | > 100 | > 100 | > 100 | > 100 | > 100 | > 100 |  |  |  |  |  |  |  |  |  | 
5 | Cc1ccc(S(=O)(=O)OCCN(CCOS(=O)(=O)c2ccc(C)cc2)c2ccc(C=O)cc2)cc1 | > 100 | 85.5 | > 100 | > 100 | > 100 | 53 | 56 | 40.1 | > 100 | > 100 |  |  |  |  |  |  |  |  |  | 
6 | O=c1c2ccc(Cl)cc2oc2c(CSc3ccccc3)cccc12 | > 78.7 | > 100 | > 100 | > 100 | > 100 | > 65.3 | > 100 | > 100 | > 86.5 | > 100 |  |  |  |  |  |  |  |  |  | 
7 | Cn1c(CO)ccc1-c1ccc(-c2ccc(CO)[se]2)[se]1 | > 91.4 | 22.5 | 60 | > 70.6 | > 100 | > 64.1 | 26.7 | 26.9 | > 100 | > 100 |  |  |  |  |  |  |  |  |  | 
8 | C/C(=N\NC(=S)NC(C)(C)C)c1nc2ncccc2[nH]1 | 20.3 | > 68.6 | > 100 | > 100 | > 100 | > 100 | > 100 | > 80.3 | > 90.5 | > 33.7 |  |  |  |  |  |  |  |  |  | 
9 | CC(C)CNP(=O)(NCC(C)C)Oc1ccc(CC(NC(=O)OCc2ccccc2)C(=O)OCc2ccccc2)cc1 (stereo not given) | 52.4 | 30.7 | 37.6 | 89.6 | 33.4 | 38.3 | 16 | 34.8 | 57.8 | 33.5 |  |  |  |  |  |  |  |  |  | 
10 | C[n+]1c2ccccc2n2c3ccccc3c(NCCCn3ccnc3)c(C#N)c21 | > 100 | 3.1 | 10.1 | 12 | 37.9 | 17.7 | > 25.2 | 4.71 | > 31.2 | > 19.6 |  |  |  |  |  |  |  |  |  | 
11 | N#Cc1cc(F)cc(Oc2ccc(S(=O)(=O)C(F)F)c3c2CC(F)(F)[C@H]3O)c1 | > 100 | > 100 | > 100 | > 100 | > 100 | > 100 | > 100 | 59.8 | > 100 | > 100 | 22.3 | 48 | 25.2 | 29.2 | 39.3 | 44.8 | 36.5 | 16.4 | 37.2 | 16.3
12 | CC(C)(NO)/C(=N\O)c1ccccc1 | > 10 | > 10 | > 10 | > 10 | > 10 | > 10 | > 10 | > 10 | > 10 | > 10 |  |  |  |  |  |  |  |  |  | 
13 | NC(=O)CSc1nc2ccccc2c(=O)n1N | > 100 | > 100 | > 100 | > 100 | > 100 | > 100 | > 100 | > 100 | > 100 | > 100 |  |  |  |  |  |  |  |  |  | 
14 | [N-]=[N+]=CC(=O)C1CCN(c2ccccc2)C1=O (stereo not given) | > 10 | > 10 | > 10 | > 10 | > 10 | > 10 | > 10 | > 10 | > 10 | > 10 |  |  |  |  |  |  |  |  |  | 
15 | Cc1cc(NC(=O)NC(=O)c2ccccc2NC(=O)CN(C)C)ccc1Oc1ncc(Br)cn1 | > 100 | 6.05 | > 79.4 | > 100 | 31.1 | > 100 | 13.1 | > 85.1 | > 100 | > 100 |  |  |  |  |  |  |  |  |  | 
16 | O=C(O)[C@H]1NC[C@H]2C(Br)=NO[C@@H]12 | > 100 | > 100 | > 100 | > 100 | > 100 | > 100 | > 100 | > 100 | > 100 | > 100 |  |  |  |  |  |  |  |  |  | 
17 | CC1(C)CCC[C@@]2(C)C1CC[C@@]1(CO)O[C@H](C3=CC(=O)OC3O)C[C@H]12 (stereo not given in full) | 20.7 | 31.3 | 18.6 | 23.5 | 30.6 | 36.3 | 29.4 | 28.9 | 32.3 | 25.8 |  |  |  |  |  |  |  |  |  | 
